Read-outs that look alike come from different tables or passages of the source.
Tested on: Human Jurkat T-cells (clone N)
Experiment: Jurkat T-cell activation (anti-TCR, CD69 upregulation)
Format: cell-based
In short: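 Readout is CD69 upregulation by flow cytometry (anti-CD69-APC, 20 min at 4 °C) after 20 h anti-TCR (C305, 500 ng/ml) stimulation at 37 °C.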

| SMILES | IC50 [nM] | IC50 (Homo sapiens, Jurkat) [nM] |
| --- | --- | --- |
| CNC(=O)COc1cccc(Nc2ncc(F)c(Nc3cccc(N)c3)n2)c1 [Compound R950262] | 3150 |  |
| CNC(=O)COc1cccc(Nc2ncc(F)c(Nc3cccc(N)c3)n2)c1 [Compound R950263] | 1910 |  |
| CNC(=O)COc1cccc(Nc2ncc(F)c(Nc3cccc(N(C)C)c3)n2)c1 [Compound R950264] | 1990 |  |
| CNC(=O)COc1cccc(Nc2ncc(F)c(Nc3cccc(NCCO)c3)n2)c1 [Compound R950265] | 982 |  |
| CNC(=O)COc1cccc(Nc2ncc(F)c(Nc3cccc(N(CCO)CCO)c3)n2)c1 [Compound R950266] | 3660 |  |
| CNC(=O)COc1cccc(Nc2ncc(F)c(Nc3cccc(NC)c3)n2)c1 [Compound R950267] | 1980 |  |
| CCOC(=O)COc1cccc(Nc2ncc(F)c(Nc3ccc(O)c(C(=O)O)c3)n2)c1 [Compound R950290] | > 10000 |  |
| O=C(O)COc1cccc(Nc2ncc(F)c(Nc3ccc(O)c(C(=O)O)c3)n2)c1 [Compound R950291] | > 10000 |  |
| CCOC(=O)COc1cccc(Nc2ncc(F)c(Nc3ccc(O)c(C(=O)OC)c3)n2)c1 [Compound R950293] | > 10000 |  |
| CCOC(=O)COc1cccc(Nc2ncc(F)c(Nc3ccc4c(c3)C(OC)CCO4)n2)c1 (stereo not shown) [Compound R950294] | 9790 |  |
| COC(=O)COc1cccc(Nc2ncc(F)c(Nc3ccc4c(c3)C(OC)CCO4)n2)c1 (stereo not shown) [Compound R950295] | 4710 |  |
| CCOC1CCOc2ccc(Nc3nc(Nc4cccc(OCC(=O)NC)c4)ncc3F)cc21 (stereo not shown) [Compound R950296] | 1950 |  |
| CNC(=O)COc1cccc(Nc2ncc(F)c(Nc3ccc(OCCC(=O)O)cc3)n2)c1 [Compound R950344] | > 10000 |  |
| CNC(=O)COc1cccc(Nc2ncc(F)c(Nc3ccc4c(c3)C(=O)CCO4)n2)c1 [Compound R950345] | 6090 |  |
| CNC(=O)COc1cccc(Nc2ncc(F)c(Nc3ccc(OCCC(=O)OC)cc3)n2)c1 [Compound R950346] | 1950 |  |
| CNC(=O)COc1cccc(Nc2ncc(F)c(Nc3ccc(O)cc3)n2)c1 [Compound R950347] | 2700 |  |

| SMILES | IC50 [nM] | IC50 (Homo sapiens, Jurkat) [nM] |
| --- | --- | --- |
| CNC(=O)COc1cccc(Nc2ncc(F)c(Nc3ccc4c(c3)C(=NO)CCO4)n2)c1 [Compound R950348] | 224 |  |
| CNC(=O)COc1cccc(Nc2ncc(F)c(Nc3ccc4c(c3)C(=NOC)CCO4)n2)c1 [Compound R950356] | 5730 |  |
| CNC(=O)COc1cccc(Nc2ncc(F)c(Nc3ccc4c(c3)C(N)CCO4)n2)c1 (stereo not shown) [Compound R950368] | 125 |  |
| CNC(=O)COc1cccc(Nc2ncc(F)c(Nc3cccc(C(C)=O)c3)n2)c1 [Compound R950371] | 1100 |  |
| CNC(=O)COc1cccc(Nc2ncc(F)c(Nc3cccc(C(=O)c4ccccc4)c3)n2)c1 [Compound R950372] | 2190 |  |
| CNC(=O)COc1cccc(Nc2ncc(F)c(Nc3cccc(C(C)=NO)c3)n2)c1 [Compound R950373] | 3610 |  |
| CNC(=O)COc1cccc(Nc2ncc(F)c(Nc3cccc(C(=NO)c4ccccc4)c3)n2)c1 [Compound R950374] | 1650 |  |
| CC(=O)c1cccc(Nc2ncc(F)c(Nc3cccc(C(C)=O)c3)n2)c1 [Compound R950376] |  | 18100 |
| O=C(c1ccccc1)c1cccc(Nc2ncc(F)c(Nc3cccc(C(=O)c4ccccc4)c3)n2)c1 [Compound R950377] |  | 5960 |
| O=C1CCOc2ccc(Nc3ncc(F)c(Nc4ccc5c(c4)C(=O)CCO5)n3)cc21 [Compound R950378] | > 10000 |  |
| CC(=NO)c1cccc(Nc2ncc(F)c(Nc3cccc(C(C)=NO)c3)n2)c1 [Compound R950379] | 878 |  |
| ON=C(c1ccccc1)c1cccc(Nc2ncc(F)c(Nc3cccc(C(=NO)c4ccccc4)c3)n2)c1 [Compound R950380] | 8690 |  |
| ON=C1CCOc2ccc(Nc3ncc(F)c(Nc4ccc5c(c4)C(=NO)CCO5)n3)cc21 [Compound R950381] | 805 |  |
| CNC(=O)COc1cccc(Nc2ncc(F)c(Nc3ccc4c(c3)C(OC(C)=O)CCO4)n2)c1 (stereo not shown) [Compound R950382] | 1550 |  |
| CNC(=O)COc1cccc(Nc2ncc(F)c(Nc3ccc4c(c3)C(N=[N+]=[N-])CCO4)n2)c1 (stereo not shown) [Compound R950383] | 1030 |  |

Source: patent US8158621B2, “Methods of treating or preventing autoimmune diseases with 2,4-pyrimidinediamine compounds” (Rigel Pharmaceuticals, Inc., priority 2002, dated 2012)
